Test results as given in patent US5656638A, “Telomerase inhibitors” (Geron Corporation, priority 1995, dated 1997).
Entries after “also recorded” stand apart in the source; their conditions may differ. Read-outs that look alike come from different tables or passages of the source.

Target: T1, telomerase (Homo sapiens, UniProt O14746)
T1 construct: placing cells, tissues, or preferably a cellular extract or other preparation containing telomerase in contact with; endogenous in cells
Test: telomerase inhibition, IC50 (Table 1)
Assay type: biochemical
Text: One method used to identify compounds of the invention that inhibit telomerase activity involves placing cells, tissues, or preferably a cellular extract or other preparation containing telomerase in contact with several known concentrations of a test compound in a buffer compatible with telomerase activity. […] Other methods for determining the inhibitory concentration of a compound of the invention against telomerase can be employed as will be apparent to those of skill in the art based on the disclosure herein.
With the above-described methods, IC50 values for several of the compounds of the present invention were determined. The values reported in Table 1 below are only approximate values; more exact IC50 values can be obtained by repetitive testing.

[1] = Table 1, approximate values only, read-out: IC50
[2] = summary of Table 1, approximate IC50 values, read-out: IC50 (bound stated in text)

T1 sequence (O14746 whole entry): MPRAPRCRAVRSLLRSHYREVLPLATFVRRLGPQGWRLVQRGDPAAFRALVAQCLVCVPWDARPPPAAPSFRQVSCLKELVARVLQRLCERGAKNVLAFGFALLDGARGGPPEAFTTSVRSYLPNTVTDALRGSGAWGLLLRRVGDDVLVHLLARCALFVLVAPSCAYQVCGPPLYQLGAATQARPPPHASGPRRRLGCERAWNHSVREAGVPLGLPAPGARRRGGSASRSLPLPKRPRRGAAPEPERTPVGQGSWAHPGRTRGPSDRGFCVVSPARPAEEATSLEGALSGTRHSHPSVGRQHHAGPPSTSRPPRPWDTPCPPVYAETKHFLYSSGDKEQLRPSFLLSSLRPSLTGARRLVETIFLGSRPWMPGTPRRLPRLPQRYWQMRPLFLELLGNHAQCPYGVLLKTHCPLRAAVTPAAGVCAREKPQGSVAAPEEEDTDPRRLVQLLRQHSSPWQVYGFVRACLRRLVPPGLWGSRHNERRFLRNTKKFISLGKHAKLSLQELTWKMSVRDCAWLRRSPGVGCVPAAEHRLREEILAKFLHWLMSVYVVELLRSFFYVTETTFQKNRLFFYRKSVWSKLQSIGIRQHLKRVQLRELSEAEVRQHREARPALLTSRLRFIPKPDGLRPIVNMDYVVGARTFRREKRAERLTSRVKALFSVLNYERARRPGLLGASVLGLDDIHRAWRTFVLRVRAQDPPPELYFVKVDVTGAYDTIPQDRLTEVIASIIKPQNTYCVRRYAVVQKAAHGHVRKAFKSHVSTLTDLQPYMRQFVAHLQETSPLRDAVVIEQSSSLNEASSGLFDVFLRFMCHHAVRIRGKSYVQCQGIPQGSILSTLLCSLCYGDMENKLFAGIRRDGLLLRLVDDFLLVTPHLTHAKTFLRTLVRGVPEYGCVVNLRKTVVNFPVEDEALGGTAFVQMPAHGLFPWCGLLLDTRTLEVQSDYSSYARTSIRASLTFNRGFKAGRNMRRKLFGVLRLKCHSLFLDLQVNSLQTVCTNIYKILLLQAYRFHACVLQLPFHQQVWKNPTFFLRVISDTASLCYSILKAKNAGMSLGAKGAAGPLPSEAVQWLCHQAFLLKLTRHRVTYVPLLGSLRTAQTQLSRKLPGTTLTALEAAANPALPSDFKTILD
T1 sequence (O60832 whole entry partner): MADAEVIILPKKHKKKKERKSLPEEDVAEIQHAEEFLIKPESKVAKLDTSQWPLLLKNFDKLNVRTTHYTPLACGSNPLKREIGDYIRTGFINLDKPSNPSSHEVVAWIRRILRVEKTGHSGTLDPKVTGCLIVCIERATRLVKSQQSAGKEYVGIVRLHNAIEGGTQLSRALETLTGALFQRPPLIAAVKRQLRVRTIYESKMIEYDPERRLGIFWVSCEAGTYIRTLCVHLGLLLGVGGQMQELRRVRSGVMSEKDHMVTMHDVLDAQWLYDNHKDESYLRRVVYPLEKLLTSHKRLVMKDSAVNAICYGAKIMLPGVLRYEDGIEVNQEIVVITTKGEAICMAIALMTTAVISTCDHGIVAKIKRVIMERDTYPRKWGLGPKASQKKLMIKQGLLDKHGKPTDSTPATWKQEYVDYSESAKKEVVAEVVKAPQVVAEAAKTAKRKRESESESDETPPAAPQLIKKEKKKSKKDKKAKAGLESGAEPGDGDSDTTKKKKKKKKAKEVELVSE
T1 sequence (Q9NPE3 whole entry partner): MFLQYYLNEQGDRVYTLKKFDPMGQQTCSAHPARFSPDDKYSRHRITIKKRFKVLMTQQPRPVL
T1 sequence (Q9NX24 whole entry partner): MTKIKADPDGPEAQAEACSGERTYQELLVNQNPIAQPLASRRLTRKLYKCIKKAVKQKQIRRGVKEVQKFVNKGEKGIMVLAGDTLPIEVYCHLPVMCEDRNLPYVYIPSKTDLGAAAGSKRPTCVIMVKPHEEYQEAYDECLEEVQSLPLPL
T1 sequence (Q9NY12 whole entry partner): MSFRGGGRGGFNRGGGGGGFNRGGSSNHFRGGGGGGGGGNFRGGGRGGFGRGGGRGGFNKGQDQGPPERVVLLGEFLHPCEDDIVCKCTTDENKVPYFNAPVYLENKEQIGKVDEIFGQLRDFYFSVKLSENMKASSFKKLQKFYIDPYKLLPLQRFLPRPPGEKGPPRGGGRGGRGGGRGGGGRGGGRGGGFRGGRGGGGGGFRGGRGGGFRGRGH

Structure (SMILES) | anti-telomerase activity (in words) | IC50 [1] | IC50 [2]
Nc1c(C(=O)c2ccc(Br)cc2)sc2nc(C=NC3C4CC5CC(C4)CC3C5)ccc12 (centres unmarked) [Compound III] | strong telomerase inhibitors | 4 µM | < 30 µM
Nc1c(C(=O)c2ccc(Cl)cc2Cl)sc2nc(C=NC3C4CC5CC(C4)CC3C5)ccc12 (centres unmarked) [Compound IV] |  | 26 µM | 
Nc1c(-c2ncc(C(F)(F)F)cc2Cl)sc2nc(C=O)ccc12 [Compound IX] | strong telomerase inhibitors | 24 µM | < 30 µM
Nc1c(C(=O)c2ccc(Cl)c(Cl)c2)sc2nc(C=O)ccc12 [Compound VIII] | particularly good anti-telomerase activity; also recorded: strong telomerase inhibitors | 28 µM | < 30 µM
Nc1c(C(=O)c2ccc(Br)cc2)sc2nc(C=O)ccc12 [Compound VII] | particularly good anti-telomerase activity | 48 µM | 
Nc1c(C(=O)c2ccc(Cl)cc2Cl)sc2nc(C=O)ccc12 [Compound VI] | particularly good anti-telomerase activity; also recorded: strong telomerase inhibitors | 29 µM | < 30 µM
Nc1c(C(=O)c2ccc(Cl)c(Cl)c2)sc2nc(C=NC3C4CC5CC(C4)CC3C5)ccc12 (centres unmarked) [Compound V] | strong telomerase inhibitors | 30 µM | < 30 µM
Cc1ccc(NN=Cc2ccc3c(N)c(C(=O)c4ccc(Br)cc4)sc3n2)cc1 [Compound XIII] | good anti-telomerase activity | 18 µM | 
Nc1c(C(=O)c2ccc(Cl)c(Cl)c2)sc2nc(C=NNc3ccc(Cl)cc3)ccc12 [Compound XII] | good anti-telomerase activity; also recorded: strong telomerase inhibitors | 21 µM | < 30 µM
Nc1c(C(=O)c2ccc(Cl)c(Cl)c2)oc2nc(C=O)ccc12 [Compound XIV] |  | 31 µM | 
Nc1c(C(=O)c2ccc(Cl)c(Cl)c2)sc2nc(C=NNc3ccccc3)ccc12 [Compound XI] | good anti-telomerase activity | 42 µM | 
Cc1cc(N=Cc2ccc3c(N)c(-c4ccc(Cl)c(Cl)c4)oc3n2)n[nH]1 [Compound XV] | good anti-telomerase activity | 49 µM | 
CC(C)(C)c1ccc(-c2noc(-c3sc4nc(C=O)ccc4c3N)n2)cc1 [Compound X] |  | 42 µM | 
